Test results published in PubChem BioAssay (NCI).
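Cells were grown in 96-well plates and exposed to each compound for 48 hours at five concentrations; endpoints were interpolated linearly between bracketing concentrations, or set to the highest concentration if not reached. Definition used: TGI = concentration required for complete inhibition of growth.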

Experiments:
Experiment in all cases: DTP human tumour cell line panel, 48 h
UACC-257 melanoma = test system: UACC-257 melanoma
COLO 205 colon = test system: COLO 205 colon
T-47D breast = test system: T-47D breast
OVCAR-5 ovarian = test system: OVCAR-5 ovarian
IGROV1 ovarian = test system: IGROV1 ovarian
NCI-H226 lung = test system: NCI-H226 lung
SNB-75 CNS = test system: SNB-75 CNS
SF-268 CNS = test system: SF-268 CNS
MDA-MB-435 = test system: MDA-MB-435
SK-MEL-2 melanoma = test system: SK-MEL-2 melanoma
UACC-62 melanoma = test system: UACC-62 melanoma
OVCAR-3 ovarian = test system: OVCAR-3 ovarian
NCI-H522 lung = test system: NCI-H522 lung
786-0 renal = test system: 786-0 renal
LOX IMVI melanoma = test system: LOX IMVI melanoma
NCI-H460 lung = test system: NCI-H460 lung
KM12 colon = test system: KM12 colon
NCI/ADR-RES ovarian = test system: NCI/ADR-RES ovarian
HOP-92 NSCLC = test system: HOP-92 NSCLC
SW-620 colon = test system: SW-620 colon
UO-31 renal = test system: UO-31 renal
PC-3 prostate = test system: PC-3 prostate
M14 melanoma = test system: M14 melanoma
HOP-62 NSCLC = test system: HOP-62 NSCLC
MDA-MB-231 breast = test system: MDA-MB-231 breast
U251 CNS = test system: U251 CNS
TK-10 renal = test system: TK-10 renal
SF-539 CNS = test system: SF-539 CNS
ACHN renal = test system: ACHN renal
EKVX NSCLC = test system: EKVX NSCLC
SK-OV-3 ovarian = test system: SK-OV-3 ovarian
RXF 393 renal = test system: RXF 393 renal
SK-MEL-5 melanoma = test system: SK-MEL-5 melanoma
NCI-H23 lung = test system: NCI-H23 lung
SF-295 CNS = test system: SF-295 CNS
HCT-15 colon = test system: HCT-15 colon
HS 578T breast = test system: HS 578T breast
A549 NSCLC = test system: A549 NSCLC
MCF7 breast = test system: MCF7 breast
SK-MEL-28 melanoma = test system: SK-MEL-28 melanoma
HL-60(TB) leukemia = test system: HL-60(TB) leukemia
HCT-116 colon = test system: HCT-116 colon
MALME-3M melanoma = test system: MALME-3M melanoma
CAKI-1 renal = test system: CAKI-1 renal
K-562 leukemia = test system: K-562 leukemia
SNB-19 CNS = test system: SNB-19 CNS
HT29 colon = test system: HT29 colon
SR leukemia = test system: SR leukemia
OVCAR-4 ovarian = test system: OVCAR-4 ovarian
DU-145 prostate = test system: DU-145 prostate
OVCAR-8 ovarian = test system: OVCAR-8 ovarian
SN12C renal = test system: SN12C renal
CCRF-CEM leukemia = test system: CCRF-CEM leukemia
A498 renal = test system: A498 renal
MOLT-4 leukemia = test system: MOLT-4 leukemia
BT-549 breast = test system: BT-549 breast
RPMI-8226 leukemia = test system: RPMI-8226 leukemia

Q: Which results are given for COc1cc2c(cc1OCCCCOc1cc3nc(C)nc(Cl)c3cc1OC)N=C[C@@H]1CCCN1C2=O?
A: TGI (UACC-257 melanoma): 4.04 µM; TGI (COLO 205 colon): 45.4 µM; TGI (T-47D breast): 31.8 µM; TGI (OVCAR-5 ovarian): 5.3 µM; TGI (IGROV1 ovarian): 4.6 µM; TGI (NCI-H226 lung): 4.07 µM; TGI (SNB-75 CNS): 3.34 µM; TGI (SF-268 CNS): 8.44 µM; TGI (MDA-MB-435): 2970 nM; TGI (SK-MEL-2 melanoma): 3.6 µM; TGI (UACC-62 melanoma): 2800 nM; TGI (OVCAR-3 ovarian): 4.7 µM; TGI (NCI-H522 lung): 2120 nM; TGI (786-0 renal): 12.4 µM; TGI (LOX IMVI melanoma): 3.04 µM; TGI (NCI-H460 lung): 45.6 µM; TGI (KM12 colon): 4.44 µM; TGI (NCI/ADR-RES ovarian): 6.87 µM; TGI (HOP-92 NSCLC): 5.52 µM; TGI (SW-620 colon): 10.1 µM; TGI (UO-31 renal): 4.73 µM; TGI (PC-3 prostate): 8.91 µM; TGI (M14 melanoma): 3.5 µM; TGI (HOP-62 NSCLC): 7.24 µM; TGI (MDA-MB-231 breast): 3.43 µM; TGI (U251 CNS): 6.88 µM; TGI (TK-10 renal): 6.04 µM; TGI (SF-539 CNS): 4.2 µM; TGI (ACHN renal): 8.82 µM; TGI (EKVX NSCLC): 19.4 µM; TGI (SK-OV-3 ovarian): > 100 µM; TGI (RXF 393 renal): 4.64 µM; TGI (SK-MEL-5 melanoma): 3.4 µM; TGI (NCI-H23 lung): 3.37 µM; TGI (SF-295 CNS): 6.76 µM; TGI (HCT-15 colon): 8.78 µM; TGI (HS 578T breast): 5.63 µM; TGI (A549 NSCLC): 7.56 µM; TGI (MCF7 breast): > 100 µM; TGI (SK-MEL-28 melanoma): 5.54 µM; TGI (HL-60(TB) leukemia): 7.43 µM; TGI (HCT-116 colon): 5.59 µM; TGI (MALME-3M melanoma): 3.4 µM; TGI (CAKI-1 renal): 5.82 µM; TGI (K-562 leukemia): 4.79 µM; TGI (SNB-19 CNS): 33.1 µM; TGI (HT29 colon): 10.2 µM; TGI (SR leukemia): 1960 nM; TGI (OVCAR-4 ovarian): 11.1 µM; TGI (DU-145 prostate): 13.2 µM; TGI (OVCAR-8 ovarian): 5.48 µM; TGI (SN12C renal): 4.8 µM

Q: For CCOC(=O)C1C=C1C(C)(C)O (stereo unspecified), which TGI (UACC-257 melanoma) is on record?
A: The TGI was > 10 µM.

Q: And the TGI (CCRF-CEM leukemia)?
A: The TGI was > 10 µM.

Q: What about the TGI (T-47D breast) of the same molecule?
A: The TGI was > 10 µM.

Q: What about the TGI (OVCAR-5 ovarian) of the same molecule?
A: Its TGI is > 10 µM.

Q: What about the TGI (IGROV1 ovarian) of the same molecule?
A: Its TGI is > 10 µM.

Q: What about the TGI (A498 renal) of the same molecule?
A: Its TGI is > 10 µM.

Q: And the TGI (NCI-H226 lung)?
A: Its TGI is > 10 µM.

Q: What about the TGI (SNB-75 CNS) of the same molecule?
A: The TGI was > 10 µM.

Q: And the TGI (SF-268 CNS)?
A: The TGI was > 10 µM.

Q: And the TGI (MDA-MB-435)?
A: The TGI was > 10000 nM.

Q: What about the TGI (SK-MEL-2 melanoma) of the same molecule?
A: Its TGI is > 10 µM.

Q: And the TGI (OVCAR-3 ovarian)?
A: The TGI was > 10 µM.

Q: What about the TGI (786-0 renal) of the same molecule?
A: Its TGI is > 10 µM.

Q: And the TGI (LOX IMVI melanoma)?
A: The TGI was > 10 µM.

Q: And the TGI (NCI-H460 lung)?
A: Its TGI is > 10 µM.

Q: What about the TGI (KM12 colon) of the same molecule?
A: The TGI was > 10 µM.

Q: And the TGI (HOP-92 NSCLC)?
A: Its TGI is > 10 µM.

Q: What about the TGI (SW-620 colon) of the same molecule?
A: Its TGI is > 10 µM.

Q: What about the TGI (UO-31 renal) of the same molecule?
A: Its TGI is > 10 µM.

Q: And the TGI (PC-3 prostate)?
A: The TGI was > 10 µM.

Q: What about the TGI (M14 melanoma) of the same molecule?
A: Its TGI is > 10 µM.

Q: And the TGI (HOP-62 NSCLC)?
A: Its TGI is > 10 µM.

Q: And the TGI (U251 CNS)?
A: Its TGI is > 10 µM.

Q: What about the TGI (TK-10 renal) of the same molecule?
A: The TGI was > 10 µM.

Q: What about the TGI (SF-539 CNS) of the same molecule?
A: The TGI was > 10 µM.

Q: What about the TGI (ACHN renal) of the same molecule?
A: The TGI was > 10 µM.

Q: And the TGI (MOLT-4 leukemia)?
A: The TGI was > 10 µM.

Q: And the TGI (EKVX NSCLC)?
A: The TGI was > 10 µM.

Q: And the TGI (SK-OV-3 ovarian)?
A: Its TGI is > 10 µM.

Q: And the TGI (RXF 393 renal)?
A: The TGI was > 10 µM.

Q: And the TGI (SK-MEL-5 melanoma)?
A: Its TGI is > 10 µM.

Q: And the TGI (NCI-H23 lung)?
A: Its TGI is > 10 µM.

Q: And the TGI (SF-295 CNS)?
A: Its TGI is > 10 µM.

Q: What about the TGI (HCT-15 colon) of the same molecule?
A: The TGI was > 10 µM.

Q: What about the TGI (HS 578T breast) of the same molecule?
A: The TGI was > 10 µM.

Q: What about the TGI (A549 NSCLC) of the same molecule?
A: Its TGI is > 10 µM.

Q: And the TGI (MCF7 breast)?
A: The TGI was > 10 µM.

Q: What about the TGI (SK-MEL-28 melanoma) of the same molecule?
A: The TGI was > 10 µM.

Q: What about the TGI (HL-60(TB) leukemia) of the same molecule?
A: Its TGI is > 10 µM.

Q: What about the TGI (MALME-3M melanoma) of the same molecule?
A: The TGI was > 10 µM.

Q: And the TGI (K-562 leukemia)?
A: Its TGI is > 10 µM.

Q: And the TGI (SNB-19 CNS)?
A: The TGI was > 10 µM.

Q: What about the TGI (HT29 colon) of the same molecule?
A: The TGI was > 10 µM.

Q: And the TGI (SR leukemia)?
A: The TGI was > 10000 nM.

Q: What about the TGI (DU-145 prostate) of the same molecule?
A: The TGI was > 10 µM.

Q: What about the TGI (OVCAR-8 ovarian) of the same molecule?
A: The TGI was > 10 µM.

Q: What about the TGI (BT-549 breast) of the same molecule?
A: Its TGI is > 10 µM.

Q: What about the TGI (SN12C renal) of the same molecule?
A: Its TGI is > 10 µM.

Q: What about the TGI (RPMI-8226 leukemia) of the same molecule?
A: The TGI was > 10 µM.
